Measurements: patent EP4702979A1, “USE OF COMPOUND IN PREVENTION OR TREATMENT OF RADIATION-INDUCED BRAIN INJURY” (Guangzhou Cellprotek Pharmaceutical Co., Ltd, priority 2023, dated 2024)
Read-outs that look alike come from different tables or passages of the source.

Experiments:
[1] = system: CC1 positive oligodendrocytes; settings: 60mg/kg/d YC-6 for 8 weeks; thalamus of the lesion, 8 weeks after gamma knife radiation; Mean±SEM, n=5; normal 1608.00±47.92, model 200.60±21.47; P<0.0001 vs model
Excerpt: (§1) Table 1. Animal grouping and treatment methods
(§2) The model constructing method for focal radiation-induced brain injury caused by gamma ray radiation was modified based on reported literature. After anesthesia of mouse by intraperitoneal injection of 0.1% pentobarbital sodium solution, the body was fixed on a customized platform, and the mouse skull was scanned by X-ray computed tomography scanner for imaging processing (radiation energy of 80kV, imaging range of 250mm, layer thickness and interlayer spacing of 0.625mm, pixel size of 0.49*0.49mm). The animal irradiation position and gamma knife irradiation depth were determined based on the scanning imaging results. The mouse and customized platform were placed in a stereotactic gamma ray irradiation system for irradiation, with the irradiation site in the left thalamus of the mouse. The coordinates of the irradiation center positioning point were: 2mm behind the anterior fontanelle (AP), 2mm left of the midline (L), and 2mm below the skull dura mater (dorsal ventral DV).

GFAP positive astrocytes = settings: 60mg/kg/d YC-6 for 8 weeks; thalamus of the lesion, 8 weeks after gamma knife radiation; Mean±SEM, n=5; normal 57.80 ± 2.69, model 558.20 ± 10.07; P<0.0001 vs model
Excerpt: as §1, §2

MAG = settings: 60mg/kg/d YC-6 for 8 weeks; thalamus of the lesion, 8 weeks after gamma knife radiation; Mean±SEM, n=5; normal 1.04±0.047, model 0.31±0.018; P<0.0001 vs model
Excerpt: as §1, §2

[2] = system: gamma knife irradiation induced focal radiation-induced brain injury; settings: MRI 8 weeks after 50 Gy gamma ray radiation, Mean±SEM, n=5, RBI+Saline model 15.28 ± 0.98, P<0.05 vs model
Excerpt: as §1, §2

[3] = Animal weighing in radiation-induced brain injury model; format: in vivo, C57BL/6 mice; settings: full 8-week YC-6 administration, 60mg/kg/d; weighed once a week
Procedure: as §1
Weighing was performed once a week before and after the gamma ray radiation model construction for 8 weeks.

**Q.** What does the source list for `C[C@@]12CCCC1C1C[C@@H](O)[C@@]3(O)C[C@@H](O)CC[C@]3(C)C1CC2` (stereo partly drawn) [YC-6, 5α-androst-3β,5,6β-triol]?
**A.** Number of mature oligodendrocytes [1]: 506.40±30.48 Oligodendrocytes/mm^2; Number of astrocytes (GFAP positive astrocytes): 357.00 ± 10.61 Astrocytes/mm^2; MAG fluorescence signal intensity (MAG): 0.44±0.018; Volume of lesion ([2]; 60mg/kg/d YC-6 for 2 weeks, then stopped for 6 weeks): 12.28 ± 0.63^# mm^3; Volume of lesion ([2]; 60mg/kg/d YC-6 for 8 weeks): 10.27 ± 1.50^# mm^3; body weight [3]: without affecting body weight
